Source: patent US20030134779A1, “Method and composition for treatment and/or prevention of antibiotic-resistant microorganism infections” (priority 2002, published 2003)
Like-named read-outs stand apart in the source and are kept apart here.

Experiments:
Test in all cases: MIC of penicillin G alone or with bovine LF, macrodilution
Type in all cases: cell-based
S. aureus ATCC 25923 = conditions: Staphylococcus aureus, strain β-lactamase type −, read-out: MICs of penicillin G
From the text: (§1) Staphylococcus aureus strains ATCC 25923 and 6538 and Escherichia coli ATCC 25922 were obtained from the American Type Culture Collection. Eight bovine mastitis clinical isolates of S. aureus (SHY97-3906, -3923, -4085 -4242, -4320 and -4343, RFT-1 and RFT-5) and one isolate of E. coli SHY97-3923-2 and one isolate of Kiebsiella pneumoniae SHY99-723-1 were kindly provided by the Laboratoire Provincial de Pathologie Animale of St-Hyacinthe and of Rock-Forest (Quebec, Canada), respectively. Nine β-lactam antibiotics resistant S. aureus strains (PC-1, NCTC 9789, 2076, 22260, ST79/741, 3804, RN9, FAR8, and FAR10) were obtained from Vanderbilt University School of Medicine (Nashville, Tenn., USA). All the culture media were from Difco Laboratories (Detroit, Mich.). Bacteria from frozen stock at −80° C. were streaked onto tryptic soy agar plates suplemented with 5% of defibrinated sheep blood (Quelab, Montreal, QC, Canada) or Brain Heart infusion agar plates. Plates were then incubated for 16 to 24 h at 37° C. For most experiments, the strains were subcultured onto Mueller Hinton agar plates (MHA) or broth (MHB) for an additional 16-20 h. Aqueous solutions of the tested products were added by filtration through a sterile filter assembly (pore size 0.2 μm, Fisher, Ottawa, Ontario).
(§2) The MICs were determined by both macrodilution (1 ml/tube) and microdilution (100 μl/well) in sterile 96 well microtiter plates (International Nunc, Napierville, Ill.) techniques in three separate experiments according to the National Committee for Clinical Laboratory Standards (1992 and 1999) in three separate experiments. Serial 2-fold dilutions in MHB of LF, LFC, antibiotic or combination of LF or LFC with antibiotic were inoculated with an overnight culture at a final inoculum of 10^6 cfu/ml in MHB. Effect of LF combination with antibiotic on MICs were determined by adding 0.5 mg or 1 mg/ml of LF to each antibiotic dilution. The MIC was defined as the lowest concentration of drug (highest dilution) that caused a complete inhibition of bacterial growth after an incubation of 18 h. Effect of LF or LFC combination with antibiotic on MIC was also determined by checkerboard method using 96 well microtiter plates. Each antibiotic dilution (50 μl) was serially added to the wells in vertical rows starting from the top (lower dilution) to the bottom. Lactoferrin or LFC (50 μl) were added to 50 μl of each antibiotic dilution and serially diluted starting at the left (lower dilution) to the right. After inoculation, the final concentration of antibiotic from top to bottom were 32 to 8, 2 to 0.5, 0.5 to 0.125 μg/ml for penicillin, cefazolin and neomycin, respectively. From left to right, the concentration of LF or LFC were 25 to 0.0244 mg/ml or 256 to 0.5 μg/ml respectively in a final volume of 100 μl/well. The microplate's were incubated at 37° C. for 24 h. Bacterial growth was measured optically at 540 nm using Spectra Max 250 Microplate Spectrophotometer System of Molecular Device (Fisher Scientific, Ottawa, Canada). Tubes were incubated at 37° C. for 18 h and bacterial growth was measured by visual examination and optically at 540 nm using a spectrophotometer (Philips PU 8800; Pye Unican Ltd, Cambridge, UK). The fractional inhibitory concentration (FIC) was calculated as described by Eliopoulos and Moellering (1991).

S. aureus FAR 10 = conditions: Staphylococcus aureus, strain β-lactamase +D, read-out: MICs of penicillin G
From the text: as §1, §2

S. aureus FAR 8 = conditions: Staphylococcus aureus, strain β-lactamase +D, read-out: MICs of penicillin G
From the text: as §1, §2

S. aureus NCTC = conditions: Staphylococcus aureus, strain β-lactamase +A
From the text: as §1, §2

S. aureus PC-1 = conditions: Staphylococcus aureus, strain β-lactamase +A constitutive
From the text: as §1, §2

S. aureus SHY97-3906 = conditions: Staphylococcus aureus, strain β-lactamase + uncharacterised, read-out: MICs of penicillin G
From the text: as §1, §2

S. aureus SHY97-3923 = conditions: Staphylococcus aureus, strain β-lactamase type −, read-out: MICs of penicillin G
From the text: as §1, §2

S. aureus SHY97-4320 = conditions: Staphylococcus aureus, strain β-lactamase + uncharacterised, read-out: MICs of penicillin G
From the text: as §1, §2

S. aureus ST79/41 = conditions: Staphylococcus aureus, strain β-lactamase +B, read-out: MICs of penicillin G
From the text: as §1, §2

CC1(C)S[C@@H]2[C@H](NC(=O)Cc3ccccc3)C(=O)N2[C@H]1C(=O)O [penicillin G, Penicillin G]
MIC (S. aureus ATCC 25923; ATCC25923, +0.5 mg/ml LF): 0.031 µg/mL
MIC (S. aureus ATCC 25923; ATCC25923, +1 mg/ml LF): 0.015 µg/mL
MIC (S. aureus ATCC 25923; ATCC25923, Alone): 0.031 µg/mL
MIC (S. aureus FAR 10; FAR10, +0.5 mg/ml LF): 1 µg/mL
MIC (S. aureus FAR 10; FAR10, +1 mg/ml LF): 1 µg/mL
MIC (S. aureus FAR 10; FAR10, Alone): 2 µg/mL
MIC (S. aureus FAR 8; FAR8, +0.5 mg/ml LF): 8 µg/mL
MIC (S. aureus FAR 8; FAR8, +1 mg/ml LF): 8 µg/mL
MIC (S. aureus FAR 8; FAR8, Alone): 16 µg/mL
MIC (S. aureus NCTC; read-out: MICs of penicillin G, +0.5 mg/ml LF): 128 µg/mL
MIC (S. aureus NCTC; read-out: MICs of penicillin G, +1 mg/ml LF): 128 µg/mL
MIC (S. aureus NCTC; read-out: MICs of penicillin G, Alone): > 128 µg/mL
MIC (S. aureus PC-1; PC1, read-out: MICs of penicillin G, +0.5 mg/ml LF): 128 µg/mL
MIC (S. aureus PC-1; PC1, read-out: MICs of penicillin G, +1 mg/ml LF): 128 µg/mL
MIC (S. aureus PC-1; PC1, read-out: MICs of penicillin G, Alone): > 128 µg/mL
MIC (S. aureus SHY97-3906; SHY973906, +0.5 mg/ml LF): 0.5 µg/mL
MIC (S. aureus SHY97-3906; SHY973906, +1 mg/ml LF): 0.25 µg/mL
MIC (S. aureus SHY97-3906; SHY973906, Alone): 0.5 µg/mL
MIC (S. aureus SHY97-3923; SHY973923, +0.5 mg/ml LF): 7 ng/mL
MIC (S. aureus SHY97-3923; SHY973923, +1 mg/ml LF): 7 ng/mL
MIC (S. aureus SHY97-3923; SHY973923, Alone): 15 ng/mL
MIC (S. aureus SHY97-4320; SHY974320, +0.5 mg/ml LF): 32 µg/mL
MIC (S. aureus SHY97-4320; SHY974320, +1 mg/ml LF): 32 µg/mL
MIC (S. aureus SHY97-4320; SHY974320, Alone): 64 µg/mL
MIC (S. aureus ST79/41; ST79/41, +0.5 mg/ml LF): 16 µg/mL
MIC (S. aureus ST79/41; ST79/41, +1 mg/ml LF): 16 µg/mL
MIC (S. aureus ST79/41; ST79/41, Alone): 32 µg/mL
